Data: patent US7816522B2, “Triazolone derivatives” (Eisai Co., Ltd., priority 2006, dated 2010)

biological target: T1, human clotting factor VIIa (Homo sapiens, UniProt P08709); assay: Inhibitory activity against clotting factor VIIa (chromogenic substrate Spectrozyme FVIIa, TF/Factor VIIa enzyme solution); type: biochemical; settings: human Factor VIIa 5 nmol/L with human TF 10 nmol/L, room temperature 40 minutes, 405 nm
T1 construct: a human clotting factor VIIa (hereinafter, “Factor VIIa”) purified sample; purchased Enzyme Research Laboratories HFVIIa
T1 sequence (P08709 213-466 limits assumed): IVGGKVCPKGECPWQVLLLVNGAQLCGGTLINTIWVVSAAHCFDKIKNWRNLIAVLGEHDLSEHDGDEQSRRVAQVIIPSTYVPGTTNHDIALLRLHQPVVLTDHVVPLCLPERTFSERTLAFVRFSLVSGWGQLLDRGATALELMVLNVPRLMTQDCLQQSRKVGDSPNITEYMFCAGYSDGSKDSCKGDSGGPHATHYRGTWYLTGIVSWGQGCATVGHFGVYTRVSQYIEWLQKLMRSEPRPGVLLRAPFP
T1 sequence (P08709 61-212 limits assumed): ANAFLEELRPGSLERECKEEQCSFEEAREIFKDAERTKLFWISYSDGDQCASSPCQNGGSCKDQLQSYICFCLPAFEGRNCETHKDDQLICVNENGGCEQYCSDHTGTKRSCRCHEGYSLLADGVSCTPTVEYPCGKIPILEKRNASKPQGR
T1 sequence (P13726 33-295 partner): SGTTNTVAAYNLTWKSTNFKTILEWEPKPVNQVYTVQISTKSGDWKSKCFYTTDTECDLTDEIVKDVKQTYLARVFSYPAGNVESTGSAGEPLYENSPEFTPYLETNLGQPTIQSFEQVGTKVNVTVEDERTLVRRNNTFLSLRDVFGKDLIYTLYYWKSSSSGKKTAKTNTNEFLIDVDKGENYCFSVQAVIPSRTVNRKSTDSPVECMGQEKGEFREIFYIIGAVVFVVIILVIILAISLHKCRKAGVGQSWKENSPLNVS
Experimental: [Inhibitory Activity Against Clotting Factor VIIa]
Dimethylsulfoxide (DMSO) solutions were prepared with compounds of the invention at concentration of 10 mmol/L (10 mmol/L compound solutions).
One packet of tris-hydroxymethylaminomethane-preset (hereinafter referred to as “Tris preset”) (Product of Sigma Corp., Catalog No. T8293), 8.8 g of sodium chloride (NaCl) and 1 g of bovine serum albumin (hereinafter abbreviated as “BSA”) were dissolved in 1 L of water to prepare a Tris-BSA buffer (100 mmol/L Tris, 0.15 mol/L NaCl, 0.1% BSA, pH 7.4).
This Tris-BSA buffer (180 μL) was added to the aforementioned 10 mmol/L compound solution (20 μL). A 10-fold dilution series was prepared for this mixture using the aforementioned Tris-BSA buffer, and solutions with the compound at concentrations of 1.0 mmol/L, 100, 10, 1, 0.1, 0.01 and 0.001 μmol/L were prepared (1.0 mmol-0.001 μmol/L compound solutions). As a control, a solution was prepared by 10-fold dilution of DMSO with the Tris-BSA buffer (hereinafter referred to as “control 10% solution”).
After dissolving one packet of Tris preset, NaCl (8.8 g) and BSA (1 g) in water (about 900 mL), there were added 1 mol/L aqueous calcium chloride (CaCl2) (15 mL) and 1 mg/mL aqueous cephalin (30 mL), and the total volume was brought to 1 L by adding water. To this solution there was added a human tissue factor (hereinafter, “TF”) sample (product of Calbiochem, Catalog No. 612151) (450 μg) to a TF sample concentration of 10 nmol/L, and then a human clotting factor VIIa (hereinafter, “Factor VIIa”) purified sample (product of Enzyme Research Laboratories, Catalog No. HFVIIa) (250 μg) was added to a Factor VIIa purified sample concentration of 5 nmol/L, to prepare an enzyme solution (100 mmol/L Tris-HCl, 0.15 mol/L NaCl, 15 mmol/L CaCl2, 30 μg/mL cephalin, 1 mg/mL BSA, 10 nmol/L TF, 5 nmol/L Factor VIIa).
To 110 μL of this enzyme solution there was added 15 μL of each of the 1.0 mmol-0.001 μmol/L compound solutions, and then 25 μL of a 1.0 mmol/L synthetic chromogenic substrate solution (Spectrozyme FVIIa, product of American Diagnostica, Catalog No. 217L) was added and the mixture was allowed to stand at room temperature for 40 minutes. Next, the amount of 4-nitroanilide released into the solution was quantitated by spectrophotometry (405 nm).
A control measurement was conducted in the same manner, using the control 10% solution instead of the compound solution.
This measurement yielded the enzyme reaction inhibition in the presence of 100 μmol/L to 0.1 nmol/L of each compound of the invention.
The enzyme reaction inhibition at each compound concentration was subjected to non-linear regression analysis, and the IC50 value for inhibitory activity of each compound against clotting factor VIIa was calculated.

| IC50 [nM] | Compound |
| --- | --- |
| 8.9 | CCOc1cc(C(Nc2ccc(C(=N)N)cc2)c2nn(-c3ncccn3)c(=O)[nH]2)cc2c1OCOC2 (racemic) [Example 28, (R) and (S)-4-{[(8-ethoxy-4H-benzo[1,3]dioxin-6-yl)-(5-oxo-1-pyrimidin-2-yl-4,5-dihydro-1H-[1,2,4]triazol-3-yl)methyl]amino}benzamidine acetate] |
| 2.7 | COc1cc(C(Nc2ccc(C(=N)N)cc2)c2nn(-c3ncccc3F)c(=O)[nH]2)cc2c1OCCC2 (racemic) [Example 29, (R) and (S)-4-({[1-(3-fluoropyridin-2-yl)-5-oxo-4,5-dihydro-1H-[1,2,4]triazol-3-yl]-(8-methoxychroman-6-yl)methyl}amino)benzamidine acetate] |
| 3.9 | COc1cc(C(Nc2ccc(C(=N)N)cc2)c2nn(-c3ncccc3F)c(=O)[nH]2)cc2c1OCCCO2 (racemic) [Example 30, (R) and (S)-4-({[1-(3-fluoropyridin-2-yl)-5-oxo-4,5-dihydro-1H-[1,2,4]triazol-3-yl]-(9-methoxy-3,4-dihydro-2H-benzo[b][1,4]dioxepin-7-yl)methyl}amino)benzamidine acetate] |
| 7.1 | COc1cc(C(Nc2ccc(C(=N)N)cc2)c2nn(-c3ncccn3)c(=O)[nH]2)cc2c1OCC2 (racemic) [Example 31, (R) and (S)-4-{[(7-methoxy-2,3-dihydrobenzofuran-5-yl)-(5-oxo-1-pyrimidin-2-yl-4,5-dihydro-1H-[1,2,4]triazol-3-yl)methyl]amino}benzamidine acetate] |
| 11.6 | COc1cc(C(Nc2ccc(C(=N)N)cc2)c2nn(-c3ncccn3)c(=O)[nH]2)c(F)c2c1OCOC2 (racemic) [Example 32, (R) and (S)-4-{[(5-fluoro-8-methoxy-4H-benzo[1,3]dioxin-6-yl)-(5-oxo-1-pyrimidin-2-yl-4,5-dihydro-1H-[1,2,4]triazol-3-yl)methyl]amino}benzamidine acetate] |
| 6.7 | COc1cc(C(Nc2ccc(C(=N)N)cc2)c2nn(-c3ncccn3)c(=O)[nH]2)c(F)c2c1OCCC2 (racemic) [Example 33, (R) and (S)-4-{[(5-fluoro-8-methoxychroman-6-yl)-(5-oxo-1-pyrimidin-2-yl-4,5-dihydro-1H-[1,2,4]triazol-3-yl)methyl]amino}benzamidine acetate] |
| 3 | COc1cc(C(Nc2ccc(C(=N)N)cc2)c2nn(-c3ncccc3N)c(=O)[nH]2)cc2c1OCCCO2 (racemic) [Example 34, (R) and (S)-4-({[1-(3-aminopyridin-2-yl)-5-oxo-4,5-dihydro-1H-[1,2,4]triazol-3-yl]-(9-methoxy-3,4-dihydro-2H-benzo[b][1,4]dioxepin-7-yl)methyl}amino)benzamidine acetate] |
| 6.8 | CCOc1cc(C(Nc2ccc(C(=N)N)cc2)c2nn(-c3ncccc3N)c(=O)[nH]2)ccc1OC (racemic) [Example 35, (R) and (S)-4-({[1-(3-aminopyridin-2-yl)-5-oxo-4,5-dihydro-1H-[1,2,4]triazol-3-yl]-(3-ethoxy-4-methoxyphenyl)methyl}amino)benzamidine acetate] |
| 3.8 | COc1ccc(C(Nc2ccc(C(=N)N)cc2)c2nn(-c3ccccc3C(=O)O)c(=O)[nH]2)cc1OC (racemic) [Example 36, (R) and (S)-2-{3-[(4-carbamimidoylphenylamino)-(3,4-dimethoxyphenyl)methyl]-5-oxo-4,5-dihydro-[1,2,4]triazol-1-yl}benzoic acid acetate] |
| 4.4 | COc1ccc(C(Nc2ccc(C(=N)N)c(F)c2)c2nn(-c3ccccc3C(=O)O)c(=O)[nH]2)cc1OC (racemic) [Example 37, (R) and (S)-2-{3-[(4-carbamimidoyl-3-fluorophenylamino)-(3,4-dimethoxyphenyl)methyl]-5-oxo-4,5-dihydro-[1,2,4]triazol-1-yl}benzoic acid acetate] |
